PMC9352027, “Targeting lipid biosynthesis pathways for hepatitis B virus cure” (PLoS ONE, 2022)

Columns and labels:
[1] = tested on: HBeAg in HBV-infected HepG2-NTCP cells; assay: microbe, parasite or virus in culture; assay type: cell-based, Hepatitis B virus genotype D (AD38); conditions: HBV-infected HepG2-NTCP cells, three days of treatment, extracellular; read-out: HBeAg, EC50
Method: (§1) Production of wild-type HBV virions from HepAD38 cells was performed as previously described. HepG2-NTCP cells were bulk plated on collagen coated flasks at a density of 6x10^6 cells/ T175 flask. Following a 3-day incubation at 37°C, cells were infected with genotype D (AD38) virus at […] in the presence of 4% PEG8000 and 2.5% DMSO. HepG2-NTCP cells were washed 3 times with OPTI-MEM and maintained in Dulbecco’s modified Eagle’s medium (DMEM) supplemented with 2% FBS and 2.5% DMSO for the following 4 days. HBV-infected HepG2-NTCP cells were trypsinized, resuspended in DMEM supplemented with 2% FBS and 1% DMSO, and seeded onto serially diluted small molecule inhibitors at a 0.5% final DMSO concentration (S1 Table) in 384-well collagen coated plates at a density of 20,000 cells/well for 3 additional days.
(§2) Cell culture supernatant (3 μL) was transferred to two 1536-well plates and HBsAg and HBeAg levels subsequently measured by HTRF (Cisbio). HBsAg was measured using Terbium conjugated (XTL-17) and D2 receptor conjugated (XTL19) anti-HBsAg antibodies, while HBeAg was measured using Terbium conjugated (GWB-F19420, Genway Biotech) and D2 receptor conjugated (GWB-24DEF, Genway Biotech) anti-HBeAg antibodies. […] was measured using an Envision plate reader at emissions of 665 nm and 615 nm. The ratio of 665/615 was used to plot compound dose response curves and EC50 values were calculated from the fit of the dose−response curves to a four-parameter equation.
(§3) (A) Schematic overview of the pathways involved in lipid biosynthesis, such as DNL, TG esterification and cholesterol biosynthesis. […] (B-D) HepG2-NTCP cells infected with HBV for three days were treated with selected compounds in an eight-point dose response. After three days of treatment, extracellular HBsAg and HBeAg levels as well as cell viability were measured.

[2] = tested on: HBsAg secretion in HBV-infected HepG2-NTCP cells; assay: microbe, parasite or virus in culture; assay type: cell-based, Hepatitis B virus genotype D (AD38); conditions: HBV-infected HepG2-NTCP cells; for EC50: three days of treatment, extracellular, read-out: HBsAg, EC50
Method: as §1, §2, §3

[3] = tested on: HBV-infected HepG2-NTCP cells; assay: Cell viability by CellTiter Glo; assay type: cell-based, human; conditions: three days of treatment
Method: as §1
Cells were analyzed for cell viability by addition of CellTiter Glo (Promega) to the assay plates and analyzed using an Envision plate reader (Perkin Elmer). CC50 values were calculated from the fit of the dose−response curves to a four-parameter equation. All CC50 values represent geometric mean values of a minimum of four determinations.
as §3

SMILES: COC(=O)c1cc(Cl)c(O)c(S(=O)(=O)Nc2cc(-c3ccccc3)c(F)cc2F)c1 [ACLY Inhibitor, methyl 3-chloro-5-(N-(4,6-difluoro-[1,1'-biphenyl]-3-yl)sulfamoyl)-4-hydroxybenzoate]
- EC50 [1]: > 10 µM
- EC50 [2]: > 10 µM
- CC50 [3]: > 10 µM

SMILES: CC1=NN(c2ccc(OC(F)F)c(-c3cccnc3)c2)C(=O)C1C(=O)Nc1cccc(C(C)(F)F)c1 (stereo not drawn) [ACSS2 Inhibitor, N-(3-(1,1-difluoroethyl)phenyl)-1-(4-(difluoromethoxy)-3-(pyridin-3-yl)phenyl)-3-methyl-5-oxo-4,5-dihydro-1H-pyrazole-4-carboxamide]
- EC50 [1]: > 10 µM
- EC50 [2]: > 10 µM
- CC50 [3]: > 10 µM

SMILES: CC(C)N(C)c1nc2cc(C(=O)O)ccc2nc1-c1ccc(F)cc1 [BioE-115, 2-(4-fluorophenyl)-3-(isopropyl(methyl)amino)quinoxaline-6-carboxylic acid]
- EC50 [1]: > 10 µM
- EC50 [2]: > 10 µM
- CC50 [3]: > 10 µM

SMILES: O=C(O)c1ccccc1NS(=O)(=O)c1ccc(Cl)c([N+](=O)[O-])c1 [CPT2 Inhibitor, 2-((4-chloro-3-nitrophenyl)sulfonamido)benzoic acid]
- EC50 [1]: > 10 µM
- EC50 [2]: > 10 µM
- CC50 [3]: > 10 µM

SMILES: Nc1ncnc2c1C(=O)N(c1ccc([C@H]3CC[C@H](CC(=O)O)CC3)cc1)CCO2 [DGAT1 Inhibitor, 2-((1r,4r)-4-(4-(4-amino-5-oxo-7,8-dihydropyrimido[5,4-f][1,4]oxazepin-6(5H)-yl)phenyl)cyclohexyl)acetic acid]
- EC50 [1]: > 10 µM
- EC50 [2]: > 10 µM

SMILES: CC1(NC(=O)c2ccc3c(-c4ccccc4Cl)cn(-c4ccc(F)cc4)c3c2)CCS(=O)(=O)C1 (stereo not drawn) [DGAT2 Inhibitor, 3-(2-chlorophenyl)-1-(4-fluorophenyl)-N-(3-methyl-1,1-dioxidotetrahydrothiophen-3-yl)-1H-indole-6-carboxamide]
- EC50 [1]: > 10 µM
- EC50 [2]: > 10 µM
- CC50 [3]: > 10 µM

SMILES: Cc1cc(C)c(-c2[nH]c(C3CC3)nc2C)cc1C(=O)N1CC(F)(c2ccc(C#N)cc2)C1 [FASN inhibitor, 4-(1-(5-(2-cyclopropyl-4-methyl-1H-imidazol-5-yl)-2,4-dimethylbenzoyl)-3-fluoroazetidin-3-yl)benzonitrile]
- EC50 [1]: > 10 µM
- selectivity HBsAg versus HBeAg [2]: selective for HBsAg
- inhibition of HBsAg secretion ([2]; maximal (up to)): up to 80%
- EC50 [2]: 0.081 µM
- CC50 [3]: > 10 µM

SMILES: CCCCCCCCc1ccc(CC[C@](N)(CO)COP(=O)(O)O)cc1 [FTY720 (S)-phosphate, (S)-2-amino-2-(hydroxymethyl)-4-(4-octylphenyl)butyl dihydrogen phosphate]
- EC50 [1]: > 10 µM
- EC50 [2]: > 10 µM
- CC50 [3]: > 10 µM

SMILES: Cc1nn(C)c2nc(NNC(=O)Nc3cc(Cl)nc(Cl)c3)cc(C(C)C)c12 [JTE-013, N-(2,6-dichloropyridin-4-yl)-2-(4-isopropyl-1,3-dimethyl-1H-pyrazolo[3,4-b]pyridin-6-yl)hydrazine-1-carboxamide]
- EC50 [1]: > 10 µM
- EC50 [2]: 6.7 µM
- CC50 [3]: > 10 µM

SMILES: C[C@H]1CCN1c1nc(N2C[C@@H]3[C@@H](CC(=O)O)[C@@H]3C2)cc(C(F)(F)F)n1 [KHK Inhibitor, 2-((1R,5S,6R)-3-(2-((S)-2-methylazetidin-1-yl)-6-(trifluoromethyl)pyrimidin-4-yl)-3-azabicyclo[3.1.0]hexan-6-yl)acetic acid]
- EC50 [1]: > 10 µM
- EC50 [2]: > 10 µM

SMILES: CCOC(=O)c1ccc(CN(Cc2ccc(-c3cccc(S(C)(=O)=O)c3)cc2)S(=O)(=O)c2c(C)cc(C)cc2C)o1 [LXR Inverse Agonist, ethyl 5-(((2,4,6-trimethyl-N-((3'-(methylsulfonyl)-[1,1'-biphenyl]-4-yl)methyl)phenyl)sulfonamido)methyl)furan-2-carboxylate]
- EC50 [1]: > 10 µM
- EC50 [2]: > 10 µM
- CC50 [3]: > 10 µM
